Reference: patent US20080050354A1, “PROTECTING BIOACTIVE FOOD INGREDIENTS USING MICROORGANISMS HAVING REDUCED METABOLIZING CAPACITY” (COMPAGNIE GERVAIS DANONE, priority 2004, published 2008)
“Also recorded” adds a separate entry of the source. Where two headings read alike, the source gives them in different places. Residues, ends and D or L forms follow the SMILES beside them.

Experiments:
[1] = tested on: pathogenic strains; conditions: in vitro; cited from earlier work
[2] = tested on: pathogenic strains; conditions: in vitro; cited from earlier work; remark: listed apart in the source
[3] = tested on: Staphylococcus aureus; conditions: Mice, IM injection; cited from earlier work
[4] = tested on: Staphylococcus aureus; conditions: sheep, IM injection; cited from earlier work
[5] = tested on: small intestine motility; conditions: 10 g/300 ml water via intragastric probe; cancelled with naloxone; cited from earlier work
[6] = Storage of fermented product thermized at 75° C. for 1 minute; conditions: thermized 75° C., about 1 minute
Method: FIG. 5: Curves illustrating the change in the residual content of bioactive peptide αS1 [91-100], added after fermentation in a fermented product and then thermized at 75° C. for 1 minute, and stored at 10° C. up to the expiry date.
(FIG. 5), but at the expense of the overall quality of the finished product. Specifically, this solution has many drawbacks: • the thermization of a fermented dairy mass entails the use of stabilizers added before the heat treatment (pectins, starches, carrageenans, etc.), which complicates the process and substantially increases the cost of the formula; • the industrial manufacturing line is more complex and requires a larger specific investment; • the product no longer benefits from appellations associated with products containing live ferments (such as yogurt) and as a result loses the benefits associated with the consumption of lactic ferments; • the organoleptic impact (generally negative) is substantial.

[7] = tested on: mouse peritoneal macrophages; conditions: in vitro; cited from earlier work
[8] = cited from earlier work
[9] = tested on: platelet aggregation; conditions: in vitro; cited from earlier work

Lactoferricin
growth of pathogenic strains [1]: Inhibition of growth

CC[C@H](C)[C@H](NC(=O)[C@@H]1CCCN1C(=O)[C@H](Cc1cnc[nH]1)NC(=O)[C@H](CCCCN)NC(=O)[C@@H]1CCCN1C(=O)[C@@H](N)CCCNC(=N)N)C(=O)N[C@@H](CCCCN)C(=O)N[C@@H](Cc1cnc[nH]1)C(=O)N[C@@H](CCC(N)=O)C(=O)NCC(=O)N[C@@H](CC(C)C)C(=O)N1CCC[C@H]1C(=O)N[C@@H](CCC(N)=O)C(=O)N[C@@H](CCC(=O)O)C(=O)N[C@H](C(=O)N[C@@H](CC(C)C)C(=O)N[C@@H](CC(N)=O)C(=O)N[C@@H](CCC(=O)O)C(=O)N[C@@H](CC(N)=O)C(=O)N[C@@H](CC(C)C)C(=O)N[C@@H](CC(C)C)C(=O)N[C@@H](CCCNC(=N)N)C(=O)N[C@@H](Cc1ccccc1)C(=O)O)C(C)C [isracidin] (H-RPKHPIKHQGLPQEVLNENLLRF-OH)
growth of pathogenic strains [2]: Inhibition of growth | efficacy against Staphylococcus aureus [3]: Mice, sheep: effective in IM | efficacy against Staphylococcus aureus [4]: Mice, sheep: effective in IM

Casein
small intestine motility [5]: intragastric probe: inhibition

peptide αS1 [91-100]: fragment 91-100 of casein αS1; peptide with relaxing properties contained in the milk protein hydrolyzate Lactium® (Ingredia) (YLGYLEQLLR; UniProt P02662 106-115, looked up, fragment)
stability of the peptide after heat treatment of the fermented product [6]: possible to ensure the stability; also recorded: possible to preserve

191-193 casein: Bovine β-casein fragment 191-193 (LLY; UniProt P02666 206-208, looked up, fragment)
effect on mouse peritoneal macrophages [7]: Stimulation of mouse | in vivo protection [8]: No in vivo protection

Peptide 106-116 of bovine κ-casein: Peptide 106-116 of bovine κ-casein (MAIPPKKNQDK; UniProt P02668 127-137, looked up, fragment)
platelet aggregation [9]: Inhibition of
